These results are taken from patent US20060234919A1, “Use” (priority 2001, published 2006).

Read-outs that look alike come from different tables or passages of the source.

Test [1] deals with myeloperoxidase. Description: carrageenan induced myeloperoxidase accumulation in the hindpaw. Type of test: in vivo, rat. As to conditions: 1000 μg/kg s.c.; 6 hours after treatment; saline controls 5.4±1.1; p<0.01. As to the method:
The rats were treated s.c. with oxytocin (1000 μg/kg) (n=6) or saline (n=6) immediately before the carrageenan injection. The accumulation of myeloperoxidase in the rat right hindpaw was measured 6 hours after the treatment with oxytocin or saline, and carrageenan. To determine the recruitment of neutrophils in response to the carrageenan induced inflammation in the rat hindpaw, the paws were weighed and homogenised in 10 ml 0.5% hexadecyltrimethyl-ammonium bromide (Sigma Chemical Co, USA), and freeze-thawed, whereafter the myeloperoxidase activity of the supernatant was assessed. The enzyme activity was determined spectrophotometrically as the change in absorbance at 650 nm (25° C.) occuring in the redox reaction of H2O2-tetramethylbenzidine (Sigma Chemical Co, USA) catalysed by myeloperoxidase. Values are expressed as myeloperoxidase units/g tissue. […] The myeloperoxidase concentration (i.e. the neutrophil recruitment) in the hindpaw was 3.5±0.72 units/g tissue in the oxytocin-treated rats compared to 5.4±1.1 units/g in the saline-treated controls (p<0.01) (FIG. 6).

In test [2] the test system is collagenase-induced cutaneous inflammation. Description: collagenase-induced cutaneous plasma protein extravasation. It is filed as in vivo, guinea-pig. As to the method: One hour after anaesthesia of guinea-pigs with urethane (1.6 g/kg, i.p.), Evans blue (20 mg/kg) was injected into a jugular vein. Collagenase ([…]) or its solvent ([…] 154 mmol/l NaCl solution) was injected s. c. into the dorsal skin. All doses of collagenase as well as the solvent were injected on both sides of the spine in randomised order. The ensuing plasma protein extravasation was determined at 60 min by extraction of Evans blue (see above) from the dorsal skin.
Oxytocin was dissolved and diluted in DMSO for all experiments involving s. c. injection in volumes of 1.0 ml/kg. All pretreatments were given 1 h prior to the induction of the respective model of inflammation. All animal experiments approved of by Karolinska institutets animal committe.
Oxytocin was a gift from Poly Peptides Copenhagen, Denmark and was dissolved in phosphate-buffered saline (composition in mmol/l: NaCl 136.9, KCl 2.7, KH2PO4 1.5, Na2HPO4 7.7). Cyclophosphamide monohydrate and collagenase from Clostridium histolyticum (type II, clostridiopeptidase A, EC 3.4.24.3) were obtained from Sigma and were dissolved in 154 mmol/l NaCl.

For test [3], the system named is xylene-induced cystitis. Description: xylene-induced cystitis, plasma protein extravasation (Evans blue). It is filed as in vivo, rat. As to conditions: 1 mg/ml s.c. 1 h before xylene; 2 h after instillation; xylene alone 13.21±3.68; p<0.01. Here is the method: Rats were anaesthetised with pentobarbital sodium and phenobarbitone sodium as above. Following i. v. injection of Evans blue (20 mg/kg, i. v.), the urinary bladder was cannulated via the urethra using a polyethylene tubing and […] xylene (30% v/v in silicone oil) were instilled within 10 s. The cannula was then left in place for a further period of 10 s. Two hours later, the animals were injected with an overdose of pentobarbitone sodium and the bladder was removed. Evans blue was extracted by incubation of the tissue in 4 ml formamide for 24 h at 55° C. for subsequent photometric measurements at 620 nm.
Plasma protein extravasation in the urinary bladder of anaesthetised rats was made 2 h after intravesical instillation of 30% (v/v) xylene […]. Control animals were treated with appropriate volumes of the vehicles ([…] silicone oil or 4 ml/kg 154 mmol/l NaCl solution, respectively). Oxytocin (1 mg/ml) was injected s. c. 1 h before administration of xylene or cyclophosphamide while control rats received DMSO (0.5 ml/kg, s. c.). Plasma protein extravasation is given as total tissue content of the protein marker, Evans blue, given i. v. (20 mg/kg) 5 min prior to the induction of cystitis.
Oxytocin was dissolved and diluted in DMSO for all experiments involving s. c. injection in volumes of 1.0 ml/kg. […]

For test [4], the system named is ischaemic musculocutaneous skin flaps. Particulars: previously shown by the inventors, cited from earlier work.
Test [5] deals with cyclophosphamide-induced cystitis. Description: cyclophosphamide-induced cystitis, plasma protein extravasation (Evans blue). It is filed as in vivo, rat. Particulars: oxytocin pre-treatment, 4 h. As to the method: Cyclophosphamide (100 mg/kg) was injected i.p. in barbiturate-anaesthetised rats for the induction of acute cystitis. Control animals were injected with an appropriate volume (4 ml/kg) of the vehicle (154 mmol/l NaCl). Five min prior to the administration of cyclophosphamide or vehicle all animals were injected i.v. with the protein marker, Evans blue (20 mg/kg). At 4 h, when increases in vascular permeability have reached maximum values in this model (Aramori I, Zenkoh J, Morikawa N, O'Donnell N. Asano M, Nakamur K et al. Novel subtype-selective nonpeptide bradykinin antagonists FR167334 and FR173657. Mol Pharmacol 1997; 51: 171-176), the uriny bladder was excised following exsanguination, and the total tissue content of Evans blue was determined as above.
Plasma protein extravasation in the urinary bladder of anaesthetised rats was made 4 h after i.p. injection of cyclophosphamide (100 mg/kg). Control animals were treated with appropriate volumes of the vehicles ([…] silicone oil or 4 ml/kg 154 mmol/l NaCl solution, respectively). Oxytocin (1 mg/ml) was injected s. c. 1 h before administration of xylene or cyclophosphamide while control rats received DMSO (0.5 ml/kg, s. c.). Plasma protein extravasation is given as total tissue content of the protein marker, Evans blue, given i. v. (20 mg/kg) 5 min prior to the induction of cystitis. […]

The test system of test [6] is carrageenan induced hyperalgesia. Description: carrageenan induced hyperalgesia, Randall Selitto Test. It is filed as in vivo, rat. As to conditions: 1000 μg/kg s.c.; 1 hour and 6 hours after the injection, compared to controls; p<0.05. Here is the method: Nociceptive thresholds were measured in the rats given oxytocin 1000 μg/kg s.c. and their controls. This was done by determining the response to mechanical stimulation using the Randall Selitto Test (Ugo Basile, type 7200, Italy). The mechanical stimulus was applied to the dorsal surface of the hindpaw by a wedged-shape pusher at a loading rate of 48 g/s and the pressure required to initiate the struggle response was measured. All rats were trained on three consecutive days before testing.

As to Oxytocin, in test [1], the “myeloperoxidase concentration (neutrophil recruitment) in the hindpaw” value came out at 3.5±0.72 units/g tissue. In addition, the “effect on collagenase-induced plasma protein extravasation” value is “no effect” in test [2] (1 ug/ml oxytocin, 10 and 30 mg collagenase); “attenuated the effect” in test [2] (s.c. pre-treatment 1 mg/ml, higher doses of the enzyme). Further, in test [2] (s.c. pre-treatment 1 mg/ml, 10 mg collagenase, without oxytocin 3.5±1.0), the “cutaneous plasma protein extravasation, Evans blue accumulation” value was determined as 2.2 ± 0.9 mg. Also, the “plasma protein extravasation, total Evans blue content of the urinary bladder” value in test [3] amounted to 5.14 ± 2.58 mg. Further, the “survival of ischaemic musculocutaneous skin flaps” value in test [4] (1 μg/kg i.c.v.) is reported as “increases the survival”; in test [4] (1 mg/kg s.c.) it was “induced the same effect”. For the same substance, the “plasma protein extravasation, Evans blue accumulation in the bladder” value in test [5] (cyclophosphamide 100 mg/kg i.p., cyclophosphamide alone 9.76±4.12) amounted to 2.56 ± 1.28 mg; in test [5] (rats given the vehicle of cyclophosphamide), 2.11 ± 1.37 mg. The “nociceptive threshold, response to mechanical stimulation” value in test [6] is reported as “increase in withdrawal latency”.
